Starred links: 1 amine or outer side, 2 acyl side, 3 side chain; linkers in the order of their positions; H or OH if unused. Positions of bridges follow the written chain, without caps; N, C: chain ends. Non-standard residues stand in square brackets, D forms with d. Residues, ends and D or L forms follow the SMILES beside them. Groups on a side chain read outwards from the residue. *: point of attachment. Ala(piperidin-4-yl) = O=C([C@H](CC1CCN([*:3])CC1)N[*:1])[*:2]; DOTA = O=C(O)CN1CCN(CC(=O)O)CCN(CC(=O)*)CCN(CC(=O)O)CC1; Phe(4-COOH) = N[C@@H](Cc1ccc(C(=O)O)cc1)C(=O)O; Trp(5-F) = N[C@@H](Cc1c[nH]c2ccc(F)cc12)C(=O)O; Trp(7-aza) = N[C@@H](Cc1c[nH]c2ncccc12)C(=O)O; X1 = C[C@@H](c1ccccc1)[C@H](N[*:1])C(=O)[*:2]; Phe(4-F) = N[C@@H](Cc1ccc(F)cc1)C(=O)O; 1Nal = N[C@@H](Cc1cccc2ccccc12)C(=O)O; Ala(4-THP) = N[C@@H](CC1CCOCC1)C(=O)O; Phe(2-F) = N[C@@H](Cc1ccccc1F)C(=O)O; Val(3-OH) = CC(C)(O)[C@H](N)C(=O)O; aIle = CC[C@@H](C)[C@H](N)C(=O)O; 4Pal = N[C@@H](Cc1ccncc1)C(=O)O; Chg = N[C@H](C(=O)O)C1CCCCC1; PEG4 = NCCOCCOCCOCCOCCC(=O)O; Tle = CC(C)(C)[C@H](N)C(=O)O; hLeu = CC(C)CC[C@H](N)C(=O)O; αMeP = C[C@@]1(C(=O)O)CCCN1; Nle = CCCC[C@H](N)C(=O)O
biological target: T1, human 4lg B7-H3 (Homo sapiens, UniProt Q5ZPR3); test: Affinity determination by surface plasmon resonance (SPR) to 4Ig B7-H3; details: SPR KD—25° C., 4Ig B7-H3; 25° C. flow cell temperature
T1 sequence (Q5ZPR3 29-534): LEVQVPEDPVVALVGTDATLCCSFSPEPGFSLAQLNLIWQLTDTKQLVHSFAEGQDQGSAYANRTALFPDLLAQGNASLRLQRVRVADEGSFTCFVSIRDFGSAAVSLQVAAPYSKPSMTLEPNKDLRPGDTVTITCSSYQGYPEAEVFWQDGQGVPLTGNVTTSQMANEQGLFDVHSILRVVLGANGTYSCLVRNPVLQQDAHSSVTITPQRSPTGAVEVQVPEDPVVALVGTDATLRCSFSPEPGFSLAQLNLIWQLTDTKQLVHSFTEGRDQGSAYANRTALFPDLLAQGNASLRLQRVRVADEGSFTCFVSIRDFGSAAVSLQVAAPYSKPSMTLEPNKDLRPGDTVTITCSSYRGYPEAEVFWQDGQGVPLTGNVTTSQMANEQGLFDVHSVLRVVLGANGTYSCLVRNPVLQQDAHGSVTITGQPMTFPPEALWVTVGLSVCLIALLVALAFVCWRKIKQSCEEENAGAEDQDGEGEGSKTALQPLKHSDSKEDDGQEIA

Structure (SMILES) | Kd [µM]
CC(=O)N[C@@H](CCC(C)C)C(=O)N[C@@H](Cc1ccc(F)cc1)C(=O)N[C@H]1CSSC[C@@H](C(=O)N[C@@H](Cc2c[nH]c3ccc(F)cc23)C(=O)N[C@@H](Cc2ccccc2)C(=O)N[C@H](C(=O)N[C@H](CCCCNC(=O)CN2CCN(CC(=O)O)CCN(CC(=O)O)CCN(CC(=O)O)CC2)C(N)=O)[C@@H](C)O)NC(=O)[C@H](Cc2ccc(O)cc2)NC(=O)[C@H](C(C)C)NC(=O)[C@H](CC(=O)O)NC(=O)[C@H](Cc2ccc(O)cc2)NC(=O)[C@H](CCCCN)NC(=O)CNC(=O)[C@H](C(C)C)NC1=O [compound 192, Ac-hLeu-4FPhe-C-V-G-K-Y-D-V-Y-C-5FW-F-Thr-dLys(DOTA)-CONH2] (Ac-[hLeu][Phe(4-F)]CVGKYDVYC[Trp(5-F)]FT[dK](DOTA)-NH2; disulfide 3-11) | 0.001 to 0.01
CCCC[C@H](NC(C)=O)C(=O)N[C@@H](Cc1ccc(O)cc1)C(=O)N[C@H]1CSSC[C@@H](C(=O)N[C@@H](Cc2c[nH]c3ncccc23)C(=O)N[C@@H](Cc2ccccc2)C(=O)N[C@H](C(=O)N[C@H](CCCCNC(=O)CN2CCN(CC(=O)O)CCN(CC(=O)O)CCN(CC(=O)O)CC2)C(N)=O)[C@@H](C)O)NC(=O)[C@H](Cc2ccc(O)cc2)NC(=O)[C@H](C(C)C)NC(=O)[C@H](CC(=O)O)NC(=O)[C@H](Cc2ccc(O)cc2)NC(=O)[C@H](CCCCN)NC(=O)CNC(=O)[C@H](C(C)C)NC1=O [compound 134, Ac-Nle-Y-C-V-G-K-Y-D-V-Y-C-7NW-F-Thr-dLys(DOTA)-CONH2] (Ac-[Nle]YCVGKYDVYC[Trp(7-aza)]FT[dK](DOTA)-NH2; disulfide 3-11) | 0.01 to 0.1
CCCC[C@H](NC(C)=O)C(=O)N[C@@H](Cc1ccc(O)cc1)C(=O)N[C@H]1CSSC[C@@H](C(=O)N[C@@H](Cc2c[nH]c3ccccc23)C(=O)N[C@@H](Cc2ccccc2)C(=O)N[C@H](C(=O)N[C@H](CCCCNC(=O)CN2CCN(CC(=O)O)CCN(CC(=O)O)CCN(CC(=O)O)CC2)C(N)=O)[C@@H](C)O)NC(=O)[C@H](Cc2ccc(O)cc2)NC(=O)[C@H](C(C)C)NC(=O)[C@H](CC(=O)O)NC(=O)[C@H](Cc2ccc(O)cc2)NC(=O)[C@H](Cc2ccncc2)NC(=O)CNC(=O)[C@H](C(C)C)NC1=O [compound 79, Ac-Nle-Y-C-V-G-4PyA-Y-D-V-Y-C-W-F-Thr-dLys(DOTA)-CONH2] (Ac-[Nle]YCVG[4Pal]YDVYCWFT[dK](DOTA)-NH2; disulfide 3-11) | 0.01 to 0.1
CC[C@@H](C)[C@@H]1NC(=O)[C@@H](NC(=O)[C@H](Cc2ccc(O)cc2)NC(=O)[C@H](CCC(C)C)NC(C)=O)CSSC[C@@H](C(=O)N[C@@H](Cc2c[nH]c3ccccc23)C(=O)N[C@@H](Cc2ccccc2)C(=O)N[C@H](C(=O)N[C@H](CCCCNC(=O)CN2CCN(CC(=O)O)CCN(CC(=O)O)CCN(CC(=O)O)CC2)C(N)=O)[C@@H](C)O)NC(=O)[C@H](Cc2ccc(O)cc2)NC(=O)[C@H](C(C)C)NC(=O)[C@H](CC(=O)O)NC(=O)[C@H](Cc2ccc(O)cc2)NC(=O)[C@H](CCCCN)NC(=O)CNC1=O [compound 121, Ac-hLeu-Y-C-allolle-G-K-Y-D-V-Y-C-W-F-Thr-dLys(DOTA)-CONH2] (Ac-[hLeu]YC[aIle]GKYDVYCWFT[dK](DOTA)-NH2; disulfide 3-11) | 0.001 to 0.01
CC(=O)N[C@@H](CCC(C)C)C(=O)N[C@@H](Cc1ccc(O)cc1)C(=O)N[C@H]1CSSC[C@@H](C(=O)N[C@@H](Cc2c[nH]c3ccccc23)C(=O)N[C@@H](Cc2ccccc2)C(=O)N[C@H](C(=O)N[C@H](CCCCNC(=O)CN2CCN(CC(=O)O)CCN(CC(=O)O)CCN(CC(=O)O)CC2)C(N)=O)[C@@H](C)O)NC(=O)[C@H](Cc2ccc(O)cc2)NC(=O)[C@H](C2CCCCC2)NC(=O)[C@H](CC(=O)O)NC(=O)[C@H](Cc2ccncc2)NC(=O)[C@H](CCCCN)NC(=O)CNC(=O)[C@H](C(C)C)NC1=O [compound 153, Ac-hLeu-Y-C-V-G-K-4PyA-D-ChG-Y-C-W-F-Thr-dLys(DOTA)-CONH2] (Ac-[hLeu]YCVGK[4Pal]D[Chg]YCWFT[dK](DOTA)-NH2; disulfide 3-11) | < 0.001

Continued, values first:

Kd [µM] | Structure (SMILES)
0.001 to 0.01 | CC(=O)N[C@@H](CCC(C)C)C(=O)N[C@@H](Cc1ccc(O)cc1)C(=O)N[C@H]1CSSC[C@@H](C(=O)N[C@@H](Cc2cccc3ccccc23)C(=O)N[C@@H](Cc2ccccc2)C(=O)N2CCC[C@@]2(C)C(=O)N[C@H](CCCCNC(=O)CN2CCN(CC(=O)O)CCN(CC(=O)O)CCN(CC(=O)O)CC2)C(N)=O)NC(=O)[C@H](Cc2ccc(O)cc2)NC(=O)[C@H](C(C)C)NC(=O)[C@H](CC(=O)O)NC(=O)[C@H](Cc2ccc(O)cc2)NC(=O)[C@H](CCCCN)NC(=O)CNC(=O)[C@H](C(C)C)NC1=O [compound 247, Ac-hLeu-Y-C-V-G-K-Y-D-V-Y-C-1Nal-F-aMePro-dLys(DOTA)-CONH2] (Ac-[hLeu]YCVGKYDVYC[1Nal]F[αMeP][dK](DOTA)-NH2; disulfide 3-11)
0.001 to 0.01 | CC(=O)N[C@@H](CCC(C)C)C(=O)N[C@@H](Cc1ccc(O)cc1)C(=O)N[C@H]1CSSC[C@@H](C(=O)N[C@@H](Cc2c[nH]c3ccc(F)cc23)C(=O)N[C@@H](Cc2ccccc2)C(=O)N[C@H](C(N)=O)C(C)(C)O)NC(=O)[C@H](Cc2ccc(O)cc2)NC(=O)[C@H](C(C)C)NC(=O)[C@H](CC(=O)O)NC(=O)[C@H](CC2CCNCC2)NC(=O)[C@H](CCCCNC(=O)CN2CCN(CC(=O)O)CCN(CC(=O)O)CCN(CC(=O)O)CC2)NC(=O)CNC(=O)[C@H](C(C)C)NC1=O [compound 202, Ac-hLeu-Y-C-V-G-Lys(DOTA)-PipAla-D-V-Y-C-5FW-F-hydroxyVal-CONH2] (Ac-[hLeu]YCVGK(DOTA)[Ala(piperidin-4-yl)]DVYC[Trp(5-F)]F[Val(3-OH)]-NH2; disulfide 3-11)
0.01 to 0.1 | CCCC[C@@H]1NC(=O)[C@H](C(C)C)NC(=O)[C@H](CC(=O)O)NC(=O)[C@H](Cc2ccc(C(=O)O)cc2)NC(=O)[C@H](CCCCN)NC(=O)CNC(=O)[C@H](C(C)C)NC(=O)[C@@H](NC(=O)[C@H](Cc2ccc(O)cc2)NC(=O)[C@H](CCC(C)C)NC(C)=O)CSSC[C@@H](C(=O)N[C@@H](Cc2c[nH]c3ccc(F)cc23)C(=O)N[C@@H](Cc2ccccc2)C(=O)N2CCC[C@H]2C(=O)N[C@H](CCCCNC(=O)CN2CCN(CC(=O)O)CCN(CC(=O)O)CCN(CC(=O)O)CC2)C(N)=O)NC1=O [compound 287, Ac-hLeu-Y-C-V-G-K-4COOHPhe-D-V-Nle-C-5FW-F-Pro-dLys(DOTA)-CONH2] (Ac-[hLeu]YCVGK[Phe(4-COOH)]DV[Nle]C[Trp(5-F)]FP[dK](DOTA)-NH2; disulfide 3-11)

same assay, conditions: SPR KD—37° C., 4Ig B7-H3; 37° C. flow cell temperature

Kd [µM] | Structure (SMILES)
< 0.001 | CC(=O)N[C@@H](CCC(C)C)C(=O)N[C@@H](Cc1ccc(O)cc1)C(=O)N[C@H]1CSSC[C@@H](C(=O)N[C@@H](Cc2c[nH]c3ccc(F)cc23)C(=O)N[C@@H](Cc2ccccc2F)C(=O)N[C@H](C(=O)N[C@H](CCCCNC(=O)CN2CCN(CC(=O)O)CCN(CC(=O)O)CCN(CC(=O)O)CC2)C(=O)O)C(C)(C)O)NC(=O)[C@H](Cc2ccc(O)cc2)NC(=O)[C@H](C(C)C)NC(=O)[C@H](CC(=O)O)NC(=O)[C@H](CC2CCOCC2)NC(=O)[C@H](CC2CCNCC2)NC(=O)CNC(=O)[C@H](C(C)(C)C)NC1=O [compound 470, Ac-hLeu-Y-C-Tbg-G-PipAla-ThpA-D-V-Y-C-5FW-2FPhe-hydroxyVal-dLys(DOTA)-COOH] (Ac-[hLeu]YC[Tle]G[Ala(piperidin-4-yl)][Ala(4-THP)]DVYC[Trp(5-F)][Phe(2-F)][Val(3-OH)][dK](DOTA)-OH; disulfide 3-11)
< 0.001 | CC(=O)N[C@@H](CCC(C)C)C(=O)N[C@@H](Cc1ccc(O)cc1)C(=O)N[C@H]1CSSC[C@@H](C(=O)N[C@@H](Cc2cccc3ccccc23)C(=O)N[C@H](C(=O)N[C@H](C(=O)N[C@H](CCCCNC(=O)CN2CCN(CC(=O)O)CCN(CC(=O)O)CCN(CC(=O)O)CC2)C(=O)O)C(C)(C)O)[C@@H](C)c2ccccc2)NC(=O)[C@H](Cc2ccc(O)cc2)NC(=O)[C@H](C(C)C)NC(=O)[C@H](CC(=O)O)NC(=O)[C@H](CC2CCOCC2)NC(=O)[C@H](CC2CCNCC2)NC(=O)CNC(=O)[C@H](C(C)(C)C)NC1=O [compound 516, Ac-hLeu-Y-C-Tbg-G-PipAla-ThpA-D-V-Y-C-1Nal-[(2S, 3S)beta-Me-Phe]-hydroxyVal-dLys(DOTA)-COOH] (Ac-[hLeu]YC[Tle]G[Ala(piperidin-4-yl)][Ala(4-THP)]DVYC[1Nal][X1][Val(3-OH)][dK](DOTA)-OH; disulfide 3-11)
< 0.001 | CC(=O)NCCCC[C@@H]1NC(=O)CNC(=O)[C@H](C(C)(C)C)NC(=O)[C@@H](NC(=O)[C@H](Cc2ccc(O)cc2)NC(=O)[C@H](CCC(C)C)NC(C)=O)CSSC[C@@H](C(=O)N[C@@H](Cc2c[nH]c3ccc(F)cc23)C(=O)N[C@H](C(=O)N[C@H](C(=O)N[C@H](C)C(=O)O)C(C)(C)O)[C@@H](C)c2ccccc2)NC(=O)[C@H](Cc2ccc(O)cc2)NC(=O)[C@H](C(C)C)NC(=O)[C@H](CC(=O)O)NC(=O)[C@H](CC2CCN(C(=O)CCOCCOCCOCCOCCNC(=O)CN3CCN(CC(=O)O)CCN(CC(=O)O)CCN(CC(=O)O)CC3)CC2)NC1=O [compound 512, Ac-hLeu-Y-C-Tbg-G-Lys(Ac)-Pip(PEG4-DOTA)Ala-D-V-Y-C-5FW-[(2S, 3S)beta-Me-Phe]-hydroxyVal-dAla-COOH] (Ac-[hLeu]YC[Tle]GK(Ac)[Ala(piperidin-4-yl)]([PEG4-DOTA])DVYC[Trp(5-F)][X1][Val(3-OH)][dA]-OH; disulfide 3-11)

Source: US20250296959A1, “B7-H3 TARGETING PEPTIDES AND CONSTRUCTS THEREOF” (Mariana Oncology Inc., priority 2024, published 2025)
